{
  "source": "patent US20260232750A1",
  "about": "“COMPOSITION AND METHOD FOR INHIBITING ADVANCED GLYCATION END PRODUCTS” (ACCESS BUSINESS GROUP INTERNATIONAL LLC, priority 2022, published 2026)",
  "key": {"[1]": {"tested_on": "fluorescent AGEs (BSA-fructose/glucose system)", "experiment": "Fluorescent AGEs formation in a BSA-fructose/glucose system", "assay_type": "biochemical, bovine", "protocol": "The formation of total fluorescent AGEs in glycated samples was assessed by determining their fluorescent intensities at an excitation/emission wavelength of 350/450 nm, as previously described. Glycated protein was prepared in vitro by incubating BSA in the presence of D-glucose (GLC) and D-fructose (FRC). The DOF extract and specific standards were dissolved in DMSO:water (1:4). BSA (4 mg/ml, 100 μl) was preliminary mixed with 50 μl of GLC (0.5 M) and 50 μl of FRC (0.5 M) in 20 mM sodium phosphate buffer (pH 7.4), and then 100 μl samples were added in the 96-well plate and incubated at 37.5° C. for 7 days. All solutions were prepared under sterile conditions and filtered using a 0.22-μm syringe before incubation. The assay was performed in triplicate, and AG was used as a positive control."}, "[2]": {"tested_on": "CML expression in human dermal fibroblasts (HDFs)", "experiment": "Anti-glycation activity on HDFs (CML immunofluorescence, glyoxal/MGO-induced)", "assay_type": "cell-based", "protocol": "HDFs cells were digested from T75 flasks and seeded to 12 well culture plate on slides at 50,000 cells per well. After 48 h the cells were treated by 0.5 mM glyoxal for 48 h. Then the cells were treated with or without positive controls or active samples for an additional 48 h. At the end of the experiment, cell slides were washed once by phosphate-buffered saline (PBS) and fixed in polyformaldehyde overnight at 4° C. For […] (CML) biomarker staining, the slides were blocked in 1% bovine serum albumin (BSA) for 1 h then applied with primary CML antibody (1:50) overnight at 4° C. The next day secondary antibody (1:1000) was applied for 2 h at room temperature. […] Image J was used to quantified CML expression from different visions randomly picked by each group. Data is presented as the mean±SD, and analyzed with Student's t-test or one-way ANOVA. * P<0.05, ** P<0.01, *** P<0.001. […]\nHDFs were cultured in high-glucose DMEM supplemented with 10% FBS containing 100 µg/ml of PS at 37° C. in a humidified 5% CO2 incubator. Cell viability was assessed using the CCK-8 kit. […] Counterstaining was performed by adopting anti-fluorescence quenching and sealing liquid containing DAPI, followed by visualisation and fluorescence image capture using a microscope (Leica, Germany). ImageJ software was used to quantify CML expression from different images randomly selected in each group."}, "[3]": {"tested_on": "AGEs in wild type AB zebrafish", "experiment": "Anti-glycation activity on zebrafish (AGEs increase model, 0.4 M glucose)", "assay_type": "in vivo", "conditions": "200 μg/mL, 5 dpf zebrafish, 24 h", "protocol": "Zebrafish were all fed in fish culture water at 28° C. (water quality: 200 mg instant sea salt was added to 1 L reverse osmosis water, the conductivity was 450-550 μS/cm; PH 6.5~8.5; Hardness of 50-100 mg/L CaCO3), provided by a fish breeding center, experimental animal use license number: SYXK (Zhejiang) 2012-0171, feeding management in line with the international AAALAC certification (certification number: 001458) requirements. Wild type AB zebrafish are bred naturally in pairs. Zebrafish aged 5 days after fertilization (DPF) were used to evaluate the anti-aging efficacy of samples.\nFive DPF wild type AB zebrafish were randomly selected and placed in 1.5 mL centrifuge tubes, with 10 zebrafish in each tube (experimental group). The extracts of Dendrobium officinale flower were given in aqueous solution with positive control aminoguanidine hydrochloride (AG) concentration of 200 μg/mL, and normal control group and model control group were set at the same time. The volume of each tube was 150 μL. […] After 24 h treatment on a 60° C. shaker, the supernatant was centrifuged and the data were collected using a multifunctional microplate reader, the fluorescent values of AGEs in each experimental group were analyzed, and the results of statistical analysis of this indicator were used to evaluate the anti-aging efficacy of samples."}},
  "note": "Counter-ions that a name gives are not always drawn.",
  "data": [
    {"smiles": "N=C(N)NN", "note": "[Aminoguanidine hydrochloride]", "values": [
      {"measurement": "IC50, fluorescent AGEs", "setting": "[1]; BSA-fructose/glucose, 37.5° C., 7 days, text b277", "value": "177.3 ± 11.6", "unit": "µg/mL"},
      {"measurement": "IC50", "setting": "[1]; read-out: IC50, AGE formation", "value": 1600, "unit": "µM"},
      {"measurement": "Anti-glycation effect, CML expression, AVE", "setting": "[2]; 0.1 mM, 48 h after 0.5 mM glyoxal, Glyoxal = 100.00", "value": 11.89},
      {"measurement": "inhibition of glycation", "setting": "[2]; positive compound AG, MGO-induced HDFs, CML IF", "value": 88.11, "unit": "%"},
      {"measurement": "AGEs fluorescence value (mean ± SE)", "setting": "[3]", "value": "35106 ± 770"}
    ]}
  ]
}
